# Source: PMC9516332 (Frontiers in Oncology, 2022)
# Read-outs that look alike come from different tables or passages of the source.
# Columns and labels:
# 134 cancer cell lines = assay: Cell viability assay (ATPlite, 72 hours), IC50 on cancer cell line panel
# AP-1060 (ETV6-NTRK3) = assay: Cell viability assay; conditions: read-out: IC50 in cell proliferation assay
structure (smiles),measurement,setting,value
CC(C)(C)c1nc(-c2cccc(NS(=O)(=O)c3c(F)cccc3F)c2F)c(-c2ccnc(N)n2)s1 [dabrafenib],IC50,"134 cancer cell lines; Homo sapiens, MOLM-13, read-out: IC50 in cell proliferation assay, MOLM-13 cell line (FLT3 ITD)",5.7 µM
same,IC50,"134 cancer cell lines; Homo sapiens, MOLT-4, read-out: IC50 in cell proliferation assay, MOLT-4 cell line",> 10 µM
same,IC50,"134 cancer cell lines; Homo sapiens, MV4-11, read-out: IC50 in cell proliferation assay, MV4-11 cell line (FLT3 ITD)",8.02 µM
same,IC50,"134 cancer cell lines; Homo sapiens, MeWo, read-out: IC50 in cell proliferation assay, MeWo cell line",1.02 µM
same,IC50,"134 cancer cell lines; Homo sapiens, NCCIT, read-out: IC50 in cell proliferation assay, NCC-IT cell line",1.16 µM
same,IC50,"134 cancer cell lines; Homo sapiens, NCI-H82, read-out: IC50 in cell proliferation assay, cell line NCI-H82",1.12 µM
same,IC50,"134 cancer cell lines; Homo sapiens, NCI-H460, read-out: IC50 in cell proliferation assay, NCI-H460 cell line",1.15 µM
same,IC50,"134 cancer cell lines; Homo sapiens, NCI-H661, read-out: IC50 in cell proliferation assay, NCI-H661 cell line",> 10 µM
same,IC50,"134 cancer cell lines; Homo sapiens, NCI-H716, read-out: IC50 in cell proliferation assay, cell line NCI-H716 (FGFR2-COL14A1)",1.17 µM
same,IC50,"134 cancer cell lines; Homo sapiens, NCI-H1650, read-out: IC50 in cell proliferation assay, NCI-H1650 cell line (EGFR exon19del)",> 10 µM
same,IC50,"134 cancer cell lines; Homo sapiens, NCI-H1975, read-out: IC50 in cell proliferation assay, NCI-H1975 cell line (EGFR p.L858R + p.T790M)",1.42 µM
same,IC50,"134 cancer cell lines; Homo sapiens, NCI-H2228, read-out: IC50 in cell proliferation assay, NCI-H2228 cell line (EML4-ALK)",2.2 µM
same,IC50,"134 cancer cell lines; Homo sapiens, OVCAR-3, read-out: IC50 in cell proliferation assay, cell line OVCAR-3",1.04 µM
same,IC50,"134 cancer cell lines; Homo sapiens, PFSK-1, read-out: IC50 in cell proliferation assay, cell line PFSK-1",> 10 µM
same,IC50,"134 cancer cell lines; Homo sapiens, RL95-2, read-out: IC50 in cell proliferation assay, cell line RL95-2 (EGFR p.A289V)",2.99 µM
same,IC50,"134 cancer cell lines; Homo sapiens, RPMI-7951, read-out: IC50 in cell proliferation assay, cell line RPMI-7951 (BRAF p.V600E)",0.043 µM
same,IC50,"134 cancer cell lines; Homo sapiens, RS4-11, read-out: IC50 in cell proliferation assay, cell line RS4;11",1.21 µM
same,IC50,"134 cancer cell lines; Homo sapiens, Rec1, read-out: IC50 in cell proliferation assay, cell line REC-1",0.975 µM
same,IC50,"134 cancer cell lines; Homo sapiens, SHP77, read-out: IC50 in cell proliferation assay, cell line SHP-77",> 10 µM
same,IC50,"134 cancer cell lines; Homo sapiens, SK-BR-3, read-out: IC50 in cell proliferation assay, cell line SK-BR-3 (ERBB2 amplification)",1.57 µM
same,IC50,"134 cancer cell lines; Homo sapiens, SK-N-AS, read-out: IC50 in cell proliferation assay, cell line SK-N-AS",3.02 µM
same,IC50,"134 cancer cell lines; Homo sapiens, SK-N-FI, read-out: IC50 in cell proliferation assay, cell line SK-N-FI",> 10 µM
same,IC50,"134 cancer cell lines; Homo sapiens, SK-N-MC, read-out: IC50 in cell proliferation assay, cell line SK-N-MC",1.78 µM
same,IC50,"134 cancer cell lines; Homo sapiens, SK-N-SH, read-out: IC50 in cell proliferation assay, cell line SK-N-SH (ALK p.F1174L)",2.14 µM
same,IC50,"134 cancer cell lines; Homo sapiens, SNU-5, read-out: IC50 in cell proliferation assay, cell line SNU-5 (MET amplification)",> 10 µM
same,IC50,"134 cancer cell lines; Homo sapiens, SNU-16, read-out: IC50 in cell proliferation assay, cell line SNU-16 (FGFR2 amplification)",> 10 µM
same,IC50,"134 cancer cell lines; Homo sapiens, SNU-C2B, read-out: IC50 in cell proliferation assay, cell line SNU-C2B (EGFR p.R165Q)",> 10 µM
same,IC50,"134 cancer cell lines; Homo sapiens, SU-DHL-1, read-out: IC50 in cell proliferation assay, cell line SU-DHL-1 (NPM1-ALK)",> 10 µM
same,IC50,"134 cancer cell lines; Homo sapiens, SU-DHL-6, read-out: IC50 in cell proliferation assay, cell line SU-DHL-6",2.61 µM
same,IC50,"134 cancer cell lines; Homo sapiens, SUP-T1, read-out: IC50 in cell proliferation assay, cell line SUP-T1",> 10 µM
same,IC50,"134 cancer cell lines; Homo sapiens, SW48, read-out: IC50 in cell proliferation assay, cell line SW48 (EGFR p.G719S)",3.01 µM
same,IC50,"134 cancer cell lines; Homo sapiens, SW480, read-out: IC50 in cell proliferation assay, cell line SW480",2.99 µM
same,IC50,"134 cancer cell lines; Homo sapiens, SW626, read-out: IC50 in cell proliferation assay, cell line SW626",> 10 µM
same,IC50,"134 cancer cell lines; Homo sapiens, SW780, read-out: IC50 in cell proliferation assay, cell line SW780 (FGFR3-BAIAP2L1)",> 10 µM
same,IC50,"134 cancer cell lines; Homo sapiens, SW837, read-out: IC50 in cell proliferation assay, cell line SW837",> 10 µM
same,IC50,"134 cancer cell lines; Homo sapiens, SW872, read-out: IC50 in cell proliferation assay, cell line SW872 (BRAF p.V600E)",0.025 µM
same,IC50,"134 cancer cell lines; Homo sapiens, SW900, read-out: IC50 in cell proliferation assay, cell line SW900",1.12 µM
same,IC50,"134 cancer cell lines; Homo sapiens, SW948, read-out: IC50 in cell proliferation assay, cell line SW948",2.72 µM
same,IC50,"134 cancer cell lines; Homo sapiens, SW982, read-out: IC50 in cell proliferation assay, cell line SW982 (BRAF p.V600E)",1.16 µM
same,IC50,"134 cancer cell lines; Homo sapiens, SW-620, read-out: IC50 in cell proliferation assay, cell line SW620",> 10 µM
same,IC50,"134 cancer cell lines; Homo sapiens, T98G, read-out: IC50 in cell proliferation assay, cell line T98G",> 10 µM
same,IC50,"134 cancer cell lines; Homo sapiens, TCC-SUP, read-out: IC50 in cell proliferation assay, cell line TCCSUP",2.08 µM
same,IC50,"134 cancer cell lines; Homo sapiens, THP-1, read-out: IC50 in cell proliferation assay, cell line THP-1",> 10 µM
same,IC50,"134 cancer cell lines; Homo sapiens, U2OS, read-out: IC50 in cell proliferation assay, cell line U2OS",> 10 µM
same,IC50,"134 cancer cell lines; Homo sapiens, U-87 MG, read-out: IC50 in cell proliferation assay, cell line U-87MG ATCC",3.6 µM
same,IC50,"134 cancer cell lines; Homo sapiens, U-118-MG, read-out: IC50 in cell proliferation assay, cell line U-118MG",2.21 µM
same,IC50,"134 cancer cell lines; Homo sapiens, UMUC3, read-out: IC50 in cell proliferation assay, cell line UM-UC-3",1.95 µM
same,IC50,"134 cancer cell lines; Hs766T, read-out: IC50 in cell proliferation assay, Hs 766T cell line",> 10 µM
same,IC50,"134 cancer cell lines; L-82, read-out: IC50 in cell proliferation assay, L-82 cell line (NPM1-ALK)",> 10 µM
same,IC50,"134 cancer cell lines; Rh30, read-out: IC50 in cell proliferation assay, cell line Rh30",> 10 µM
same,IC50,"134 cancer cell lines; read-out: IC50 in cell proliferation assay, 11-18 cell line (EGFR p.L858R)",> 10 µM
same,IC50,"134 cancer cell lines; read-out: IC50 in cell proliferation assay, Hs 852.T cell line",1.42 µM
same,IC50,"134 cancer cell lines; read-out: IC50 in cell proliferation assay, JAR cell line",1.53 µM
same,IC50,"134 cancer cell lines; read-out: IC50 in cell proliferation assay, cell line 5637",0.562 µM
same,IC50,"134 cancer cell lines; read-out: IC50 in cell proliferation assay, cell line A-388",> 10 µM
same,IC50,"134 cancer cell lines; read-out: IC50 in cell proliferation assay, cell line DB",1.72 µM
same,IC50,"134 cancer cell lines; read-out: IC50 in cell proliferation assay, cell line DEL (NPM1-ALK)",> 10 µM
same,IC50,"134 cancer cell lines; read-out: IC50 in cell proliferation assay, cell line ES-2 (BRAF p.V600E)",0.13 µM
same,IC50,"134 cancer cell lines; read-out: IC50 in cell proliferation assay, cell line PA-1",1.71 µM
same,IC50,"134 cancer cell lines; read-out: IC50 in cell proliferation assay, cell line PC-3",> 10 µM
same,IC50,"134 cancer cell lines; read-out: IC50 in cell proliferation assay, cell line RD",1.79 µM
same,IC50,"134 cancer cell lines; read-out: IC50 in cell proliferation assay, cell line RKO (BRAF p.V600E)",0.011 µM
same,IC50,"134 cancer cell lines; read-out: IC50 in cell proliferation assay, cell line RL",> 10 µM
same,IC50,"134 cancer cell lines; read-out: IC50 in cell proliferation assay, cell line RT-4 (FGFR3-TACC3)",> 10 µM
same,IC50,"134 cancer cell lines; read-out: IC50 in cell proliferation assay, cell line SR (NPM1-ALK)",1.76 µM
same,IC50,"134 cancer cell lines; read-out: IC50 in cell proliferation assay, cell line T24",1.17 µM
same,IC50,"134 cancer cell lines; read-out: IC50 in cell proliferation assay, cell line TT (RET p.C634W)",> 10 µM
same,IC50,"134 cancer cell lines; read-out: IC50 in cell proliferation assay, cell line VA-ES-BJ",2.1 µM
same,IC50,AP-1060 (ETV6-NTRK3),2.52 µM
